Laboratory results as given in ChEMBL document CHEMBL5038665, “Identification of the Benzoimidazole Compound as a Selective FLT3 Inhibitor by Cell-Based High-Throughput Screening of a Diversity Library” (J Med Chem, 2022).
Active and inactive are the calls of the source. No cut-off for these calls is given here.

Key:
[1] = Toxicity in Balb/c mouse implanted with mouse Ba/F3 FLT3-ITD cells assessed as inflammatory cell infiltration in spleen at 30 to 100 mg/kg, po administered for 14 days; format: organism-based, BaF3; conditions: in vivo, 336 h, time 14 day
[2] = target: Receptor-type tyrosine-protein kinase FLT3 (Homo sapiens, UniProt P36888, ITD); experiment: Inhibition of FLT3-ITD mutant (unknown origin)
[3] = target: Mast/stem cell growth factor receptor Kit (Homo sapiens, UniProt P10721); experiment: Inhibition of KIT (unknown origin)
MOLM-13 [4] = experiment: Antiproliferative activity against human MOLM-13 cells harboring FLT3-ITD mutant assessed as reduction in cell viability measured after 72 hrs by MTS assay; format: functional, cell-based; conditions: MOLM-13, 72 h
[5] = target: T1, Receptor-type tyrosine-protein kinase FLT3 (Homo sapiens, UniProt P36888); experiment: Inhibition of FLT3 (unknown origin)
T1 sequence (P36888 whole entry): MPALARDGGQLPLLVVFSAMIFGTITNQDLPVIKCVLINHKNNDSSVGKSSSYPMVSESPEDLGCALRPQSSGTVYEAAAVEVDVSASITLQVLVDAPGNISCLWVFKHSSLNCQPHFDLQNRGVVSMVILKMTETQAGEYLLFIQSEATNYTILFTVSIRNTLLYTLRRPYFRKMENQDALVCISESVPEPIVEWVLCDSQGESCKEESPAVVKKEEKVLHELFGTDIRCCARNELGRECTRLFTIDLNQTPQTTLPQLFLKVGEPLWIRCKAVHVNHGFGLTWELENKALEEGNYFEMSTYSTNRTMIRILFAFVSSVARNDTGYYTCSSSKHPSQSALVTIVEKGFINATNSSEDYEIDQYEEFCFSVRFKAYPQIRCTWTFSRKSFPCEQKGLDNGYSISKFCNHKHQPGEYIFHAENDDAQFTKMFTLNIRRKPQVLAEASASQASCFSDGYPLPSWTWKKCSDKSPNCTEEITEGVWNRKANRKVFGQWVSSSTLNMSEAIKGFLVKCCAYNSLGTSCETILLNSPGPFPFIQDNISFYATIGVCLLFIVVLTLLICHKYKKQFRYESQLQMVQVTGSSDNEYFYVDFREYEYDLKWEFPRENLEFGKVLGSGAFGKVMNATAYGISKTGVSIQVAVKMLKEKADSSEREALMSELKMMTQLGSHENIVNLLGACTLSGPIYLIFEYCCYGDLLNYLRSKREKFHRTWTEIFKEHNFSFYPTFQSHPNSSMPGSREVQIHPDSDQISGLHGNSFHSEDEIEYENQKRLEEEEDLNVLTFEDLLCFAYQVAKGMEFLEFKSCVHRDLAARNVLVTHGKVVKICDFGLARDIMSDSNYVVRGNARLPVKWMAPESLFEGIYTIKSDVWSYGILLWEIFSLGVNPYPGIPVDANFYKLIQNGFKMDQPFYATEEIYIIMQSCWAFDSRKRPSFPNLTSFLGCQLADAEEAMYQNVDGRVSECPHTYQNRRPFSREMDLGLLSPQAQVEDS

[6] = Antitumor activity against mouse Ba/F3 FLT3-ITD cells implanted in Balb/c mouse assessed as increase in survival time at 30 mg/kg, po administered every 24 hrs (Rvb=14 days); format: functional
[7] = Induction of apoptosis in mouse BaF3 cells assessed as survival population at 0.5 uM measured after 48 hrs by Annexin V-FITC/propidium iodide staining based flow cytometry(reference value: 96.35 %); format: toxicity, cell-based; conditions: read-out: Activity
[8] = target: Receptor-type tyrosine-protein kinase FLT3 (Homo sapiens) (UniProt P36888); experiment: Inhibition of FLT3-mediated signalling pathway in human MV4-11 cells assessed as inhibition of STAT5 phosphorylation at 50 nM by western blot analysis; format: cell-based
[9] = Antitumor activity against mouse Ba/F3 FLT3-ITD cells implanted in Balb/c mouse assessed as increase in survival time at 120 mg/kg, po administered every 24 hrs (Rvb=14 days); format: functional
[10] = target: Fibroblast growth factor receptor 1 (Homo sapiens, UniProt P11362); experiment: Inhibition of FGFR1 (unknown origin)
[11] = Antiproliferative activity against human ML-1 cells expressing wild type FLT3 assessed as reduction in cell viability measured after 72 hrs by MTS assay; format: functional, cell-based; conditions: ML1, 72 h
MV4-11 [12] = experiment: Antitumor activity against human MV4-11 cells xenografted in Balb/c mouse assessed as reduction in tumor weight at 100 mg/kg, po administered for 28 days; format: functional, organism-based; conditions: time 28.0 day
[13] = Antiproliferative activity against mouse Ba/F3 FLT3-ITD cells assessed as reduction in cell viability measured after 72 hrs by MTS assay; format: functional, cell-based
[14] = AUC (0-t) in 12 hrs fasted Sprague-Dawley rat at 2 mg/kg, iv measured upto 24 hrs by LC-MS analysis; format: ADME, organism-based; design: route intravenous, dose 2 mg/kg, time <=24; conditions: in vivo
[15] = target: Receptor-type tyrosine-protein kinase FLT3 (Homo sapiens) (UniProt P36888); experiment: Inhibition of FLT3 phosphorylation in human MV4-11 cells assessed as reduction in phosphorylated FLT3 level measured after 12 hrs by western blot analysis; format: cell-based
HL-60 = experiment: Antiproliferative activity against human HL-60 cells expressing wild type FLT3 assessed as reduction in cell viability measured after 72 hrs by MTS assay; format: functional, cell-based; conditions: HL-60, 72 h
MOLM-13 [16] = experiment: Induction of apoptosis in human MOLM-13 cells assessed as survival population at 0.5 uM measured after 48 hrs by Annexin V-FITC/propidium iodide staining based flow cytometry(reference value: 97.35 %); format: functional
MV4-11 [17] = experiment: Induction of apoptosis in human MV4-11 cells assessed as survival population at 0.1 uM measured after 48 hrs by Annexin V-FITC/propidium iodide staining based flow cytometry(reference value: 98.01 %); format: functional

Mast/stem cell growth factor receptor Kit, sequence (P10721 whole entry): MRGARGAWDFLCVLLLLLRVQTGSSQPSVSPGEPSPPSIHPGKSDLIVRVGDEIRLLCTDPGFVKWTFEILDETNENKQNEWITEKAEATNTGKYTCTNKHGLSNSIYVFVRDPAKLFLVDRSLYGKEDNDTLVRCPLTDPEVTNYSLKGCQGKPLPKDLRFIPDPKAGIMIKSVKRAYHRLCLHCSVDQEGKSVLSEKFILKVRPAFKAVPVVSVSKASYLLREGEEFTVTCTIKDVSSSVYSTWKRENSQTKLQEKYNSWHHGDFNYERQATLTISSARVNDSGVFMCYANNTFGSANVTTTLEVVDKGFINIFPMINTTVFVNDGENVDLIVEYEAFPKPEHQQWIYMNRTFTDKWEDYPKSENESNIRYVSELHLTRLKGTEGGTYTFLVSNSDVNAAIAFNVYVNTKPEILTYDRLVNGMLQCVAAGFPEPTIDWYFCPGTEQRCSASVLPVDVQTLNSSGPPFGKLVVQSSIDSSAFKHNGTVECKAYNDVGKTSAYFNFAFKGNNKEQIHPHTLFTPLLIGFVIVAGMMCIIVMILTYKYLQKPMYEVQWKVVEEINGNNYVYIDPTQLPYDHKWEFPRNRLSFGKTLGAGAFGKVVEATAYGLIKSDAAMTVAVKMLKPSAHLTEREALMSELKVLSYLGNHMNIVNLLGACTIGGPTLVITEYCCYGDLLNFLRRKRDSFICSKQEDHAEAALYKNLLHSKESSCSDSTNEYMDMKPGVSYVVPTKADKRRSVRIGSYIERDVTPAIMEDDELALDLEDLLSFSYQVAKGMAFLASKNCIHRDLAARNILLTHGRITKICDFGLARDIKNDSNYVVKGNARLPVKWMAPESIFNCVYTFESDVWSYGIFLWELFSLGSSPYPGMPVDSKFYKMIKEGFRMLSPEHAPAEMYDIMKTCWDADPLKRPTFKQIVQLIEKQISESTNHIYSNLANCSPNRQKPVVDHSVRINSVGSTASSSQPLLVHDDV
Fibroblast growth factor receptor 1, sequence (P11362 whole entry): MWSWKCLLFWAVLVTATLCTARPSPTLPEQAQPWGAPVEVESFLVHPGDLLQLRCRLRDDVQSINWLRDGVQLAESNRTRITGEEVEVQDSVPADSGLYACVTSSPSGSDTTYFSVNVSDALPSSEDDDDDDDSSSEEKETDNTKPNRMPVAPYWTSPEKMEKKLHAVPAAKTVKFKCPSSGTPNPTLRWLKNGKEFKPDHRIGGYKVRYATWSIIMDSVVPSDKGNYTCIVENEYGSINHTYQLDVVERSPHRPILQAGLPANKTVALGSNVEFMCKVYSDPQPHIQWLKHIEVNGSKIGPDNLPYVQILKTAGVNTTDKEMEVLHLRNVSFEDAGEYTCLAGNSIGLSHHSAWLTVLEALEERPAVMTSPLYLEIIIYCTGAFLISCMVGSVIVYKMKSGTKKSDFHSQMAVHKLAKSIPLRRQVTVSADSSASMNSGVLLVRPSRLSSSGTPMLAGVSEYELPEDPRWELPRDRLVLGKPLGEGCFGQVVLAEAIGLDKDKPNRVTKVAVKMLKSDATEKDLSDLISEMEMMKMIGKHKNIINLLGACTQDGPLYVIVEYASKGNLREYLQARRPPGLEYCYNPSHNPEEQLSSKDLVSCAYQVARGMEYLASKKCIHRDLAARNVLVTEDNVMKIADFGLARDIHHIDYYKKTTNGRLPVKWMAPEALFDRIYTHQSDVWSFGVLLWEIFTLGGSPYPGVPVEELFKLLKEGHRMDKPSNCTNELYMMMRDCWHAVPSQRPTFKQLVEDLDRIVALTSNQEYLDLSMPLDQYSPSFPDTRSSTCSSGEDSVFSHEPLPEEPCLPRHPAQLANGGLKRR

Compound: COc1cc(CNc2ccc3c(c2)ncn3-c2ccccc2)ccc1OCCO
- Activity [1]: Non-Toxic
- IC50 [2]: 70 nM
- IC50 [3]: 160 nM
- IC50 (MOLM-13 [4]): 66.8 nM
- IC50 [5]: 85 nM
- Time [6]: 18 days
- viability at 48 h, 0.5 µM [7]: 96.7%
- inhibition [8]: Active
- Time [9]: 25 days
- IC50 [10]: > 1000 nM
- IC50 [11]: > 50000 nM
- Activity (MV4-11 [12]): Active
- IC50 [13]: 75.4 nM
- AUC(0-t) at 24 h [14]: 800 ng·h/mL
- inhibition [15]: Active
- IC50 (HL-60): > 50000 nM
- Activity (MOLM-13 [16]): 68.85%
- Activity (MV4-11 [17]): 94.26%
